Measurements published in US11512083B2, “Compounds and methods for the enhanced degradation of targeted proteins” (Arvinas Operations, Inc., priority 2015, dated 2022).

Columns and labels:
Androgen Receptor = experiment: Androgen receptor ELISA assay (AR degradation) in LNCaP and/or VCaP cells; type: cell-based; conditions: AR PROTACs; 24 h incubation
Protocol: Compounds have been evaluated in this assay in LNCaP and/or VCaP cells utilizing similar protocols. The protocols used with VCaP cells are described below. The androgen receptor ELISA assay was performed using PathScan AR ELISA (Cell Signaling Catalog #128501 according to the following assay steps:
VCaP cells are seeded at 30,000 cells/well at a volume of 200 μL/well in VCaP assay medium [Phenol red free RPMI (Gibco Cat #11835-030); 5% Charcoal Stripped (Dextran treated) FBS (Omega Scientific, Cat #FB-04); Pen/Strep Life Technologies (Gibco Cat #: 10378-016); 0. 1 nM R1881 (Sigma, Cat #R0908) is added upon the start of the assay, not during initial plating of the cells) in Corning 3904 plates. The cells are grown for a minimum of 3 days.
(2)(i) Make 10× stock plate in media; (ii) transfer 2.5 μL of the 1000× stock to a new 10× stock plate (use 12 channel pipet, start at A (DMSO control) work thru H. When 247.5 μL of media is added to this plate, it will serve as a 10× stock; (iii) make media+1 nM R1881 for making 10× stock plate; (iv) add 247.5 μL of media with 1 nM R1881 to each well of the 10× stock plate, mix.
Then 22 μL of 10× stock is added to cells and incubated for 24 h. 1× Cell Signaling Cell lysis buffer is made (Catalogue #9803; comes with the kit)—prepare for 50 μL/well. Keep on ice. Media is aspirated, and 50 μL 1× cell lysis buffer/well is added. The cells are placed on ice for 10 minutes. The solution is mixed and transferred to PCR plate, and centrifuged at 4 C for 10 minutes at 4000 rpm. […]
Add 100 μL/well AR Elisa; cover and shake, 37 C for 2 hrs; dump, tap, wash 4× 200 μL ELISA wash buffer; add 100 μL/well mouse AR detection Ab; cover and shake, 37 C for 1 hr; dump, tap, wash 4× 200 μL ELISA wash buffer; add 100 μL/well anti-mouse—HRP conjugated Ab (comes with the kit); cover and shake, 37 C for 30 min; allow TMB reagent to come to RT; dump, tap, wash 4× 200 μL Elisa wash buffer; tap; add 100 μL TMB, shake 5 min—while watching color. […] Add 100 μL Stop solution; shake and read at 450 nm. […]

BRD4 = BRD4 (Homo sapiens (Human), UniProt O60885); experiment: BRD4 c-myc ELISA assay in 22RV-1 cells; type: cell-based; conditions: 18 hrs, 300 nM-0.3 nM
Protocol: 22RV-1 cells were seeded at 30,000 cells/well at a volume of 75 μL/well in RPMI+10% FBS media in 96-well plates and grown overnight at 37 C. Cells were dosed with compounds at 4× concentration diluted in 0.4% DMSO; compounds were serially diluted 1:3 for 8-point dose curve. 25 ul of compound was added to cells for a final concentration starting at 300 nM-0.3 nM in 0.1% DMSO and incubated for 18 hrs. Media was aspirated, cells washed 1× with PBS and aspirated. Cells were lysed in 50 ul RIPA buffer (50 mM Tris pH8, 150 mM NaCl, 1% Tx-100, 0.1% SDS, 0.5% sodium deoxycholate) supplemented with protease and phosphatase inhibitors. Plates were incubated on ice for 15 minutes then centrifuged at 4° C. for 10 min at 4000 rpm. Added 50 ul of cleared lysate from 96-well assay plate into 96-well c-myc ELISA plate (Novex, Life Technologies Catalog #KH02041). […] The rest of the assay was performed following the protocol from the c-myc ELISA kit. Data was analyzed and plotted using GraphPad Prism software.

VHL = VHL (Homo sapiens (Human), UniProt P40337); experiment: VHL fluorescence polarization (FP) competition assay; type: binding

| Compound | cMyc Imax (BRD4) | IC50 (VHL; 1% in DMSO) [µM] | also measured |
| --- | --- | --- | --- |
| Cc1ncsc1-c1ccc([C@H](C)NC(=O)[C@@H]2C[C@@H](O)CN2C(=O)[C@H](C(C)C)n2cc(OCCCOCCC(O)CCOc3ccc(N4C(=S)N(c5ccc(C#N)c(C(F)(F)F)c5)C(=O)C4(C)C)cc3)cn2)cc1 (stereo partly shown) |  |  | Dmax (highest percentage of Androgen Receptor degradation observed) (Androgen Receptor): +++ (51%≤Dmax≤70%) |
| Cc1ncsc1-c1ccc(CNC(=O)[C@@H]2C[C@@H](O)CN2C(=O)C(C(C)C)n2cc(OC3CCN(c4ccc(-c5ccc(N6C(=S)N(c7ccc(C#N)c(C(F)(F)F)c7)C(=O)C6(C)C)cc5)cn4)CC3)cn2)cc1 (stereo partly shown) |  |  | Dmax (highest percentage of Androgen Receptor degradation observed) (Androgen Receptor): ++ (26%≤Dmax≤50%) |
| Cc1ncsc1-c1ccc([C@H](C)NC(=O)[C@@H]2C[C@@H](O)CN2C(=O)[C@H](C(C)C)n2cc(-c3ccnc(N4CC[C@@H](Nc5ccc(C(=O)N[C@H]6C(C)(C)[C@H](Oc7ccc(C#N)c(Cl)c7)C6(C)C)cc5)C4)c3)cn2)cc1 |  |  | Dmax (highest percentage of Androgen Receptor degradation observed) (Androgen Receptor): ++ (26%≤Dmax≤50%) |
| Cc1ncsc1-c1ccc([C@H](C)NC(=O)[C@@H]2C[C@@H](O)CN2C(=O)[C@H](C(C)C)n2cc(-c3ccnc(O[C@H]4C[C@H](NC(=O)C[C@@H]5N=C(c6ccc(Cl)cc6)c6c(sc(C)c6C)-n6c(C)nnc65)C4)c3)cn2)cc1 | ++++ (71%≤Imax) |  |  |
| Cc1ncsc1-c1ccc([C@H](C)NC(=O)[C@@H]2C[C@@H](O)CN2C(=O)[C@H](C(C)C)n2cc(-c3ccnc(N4CC[C@H](NC(=O)C[C@@H]5N=C(c6ccc(Cl)cc6)c6c(sc(C)c6C)-n6c(C)nnc65)C4)c3)cn2)cc1 | ++++ (71%≤Imax) |  |  |
| Cc1ncsc1-c1ccc([C@H](C)NC(=O)[C@@H]2C[C@@H](O)CN2C(=O)[C@@H](n2cc(-c3ccnc(O[C@H]4C[C@@H](NC(=O)C[C@@H]5N=C(c6ccc(Cl)cc6)c6c(sc(C)c6C)-n6c(C)nnc65)C4)c3)cn2)C(C)(C)C)cc1 | ++++ (71%≤Imax) |  |  |
| Cc1ncsc1-c1ccc(CNC(=O)[C@@H]2C[C@@H](O)CN2C(=O)[C@H](C(C)C)n2cc(-c3cccc(O[C@H](C)CNC(=O)C[C@@H]4N=C(c5ccc(Cl)cc5)c5c(sc(C)c5C)-n5c(C)nnc54)c3)cn2)cc1 | ++++ (71%≤Imax) |  |  |
| Cc1ncsc1-c1ccc(CNC(=O)C2(C)C[C@@H](O)CN2C(=O)[C@H](C(C)C)N2Cc3ccccc3C2=O)cc1 (single isomer, unassigned) [Example 128] |  | > 100 |  |
| Cc1ncsc1-c1ccc(CNC(=O)C2(C)C[C@@H](O)CN2C(=O)[C@H](C(C)C)N2Cc3ccccc3C2=O)cc1 (single isomer, unassigned) [Example 129] |  | 19.3 |  |
| CSC[C@H](NC(=O)CCC(C)C)C(=O)N1C[C@H](O)C[C@H]1C(=O)NCc1ccc(-c2scnc2C)cc1 [Example 22, (2S,4R)-4-hydroxy-1-((R)-2-(4-methylpentanamido)-3-(methylthio)propanoyl)-N-(4-(4-methylthiazol-5-yl)benzyl)pyrrolidine-2-carboxamide] |  | 6.25 | IC50 (VHL; 10% in DMSO): 8.29 µM |
| Cc1ncsc1-c1ccc(CNC(=O)[C@@H]2C[C@@H](O)CN2C(=O)[C@@H](NC(=O)c2ccccc2C#N)C(C)(C)C)cc1 [Example 70, (2S,4R)-1-((S)-2-(2-cyanobenzamido)-3,3-dimethylbutanoyl)-4-hydroxy-N-(4-(4-methylthiazol-5-yl)benzyl)pyrrolidine-2-carboxamide] |  | 2.02 | IC50 (VHL; 10% in DMSO): 1.2 µM |
| Cc1ncsc1-c1ccc(CNC(=O)[C@@H]2C[C@@H](O)CN2C(=O)[C@@H](NC(=O)C2CCN(C)CC2)C(C)(C)C)cc1 [Example 75, N—((S)-1-((2S,4R)-4-hydroxy-2-(4-(4-methylthiazol-5-yl)benzylcarbamoyl)pyrrolidin-1-yl)-3,3-dimethyl-1-oxobutan-2-yl)-1-methylpiperidine-4-carboxamide] |  | 13.7 | IC50 (VHL; 10% in DMSO): 9.29 µM |
| Cc1ncsc1-c1ccc(CNC(=S)[C@@H]2C[C@@H](O)CN2C(=O)[C@H](C(C)C)N2Cc3ccccc3C2=O)cc1 [Example 110, (2S,4R)-4-hydroxy-1-((S)-3-methyl-2-(1-oxoisoindolin-2-yl)butanoyl)-N-(4-(4-methylthiazol-5-yl)benzyl)pyrrolidine-2-carbothioamide] |  | 21.6 |  |
